{
  "source": "ChEMBL document CHEMBL6103630",
  "about": "“Discovery of Novel 2,4,5-Trisubstituted Pyrimidine Derivatives as Potent and Selective FGFR Inhibitors against Gatekeeper Mutants for the Treatment of NSCLC” (J Med Chem, 2025)",
  "key": {"[1]": {"molecular_target": "T1, Fibroblast growth factor receptor 2 (Homo sapiens, UniProt P21802)", "test": "Inhibition of wild type FGFR2 (unknown origin) by caliper mobility shift assay"}, "[2]": {"molecular_target": "Fibroblast growth factor receptor 2 (Homo sapiens, UniProt P21802, V564F)", "sequence (P21802 22-821 V564F limits assumed)": "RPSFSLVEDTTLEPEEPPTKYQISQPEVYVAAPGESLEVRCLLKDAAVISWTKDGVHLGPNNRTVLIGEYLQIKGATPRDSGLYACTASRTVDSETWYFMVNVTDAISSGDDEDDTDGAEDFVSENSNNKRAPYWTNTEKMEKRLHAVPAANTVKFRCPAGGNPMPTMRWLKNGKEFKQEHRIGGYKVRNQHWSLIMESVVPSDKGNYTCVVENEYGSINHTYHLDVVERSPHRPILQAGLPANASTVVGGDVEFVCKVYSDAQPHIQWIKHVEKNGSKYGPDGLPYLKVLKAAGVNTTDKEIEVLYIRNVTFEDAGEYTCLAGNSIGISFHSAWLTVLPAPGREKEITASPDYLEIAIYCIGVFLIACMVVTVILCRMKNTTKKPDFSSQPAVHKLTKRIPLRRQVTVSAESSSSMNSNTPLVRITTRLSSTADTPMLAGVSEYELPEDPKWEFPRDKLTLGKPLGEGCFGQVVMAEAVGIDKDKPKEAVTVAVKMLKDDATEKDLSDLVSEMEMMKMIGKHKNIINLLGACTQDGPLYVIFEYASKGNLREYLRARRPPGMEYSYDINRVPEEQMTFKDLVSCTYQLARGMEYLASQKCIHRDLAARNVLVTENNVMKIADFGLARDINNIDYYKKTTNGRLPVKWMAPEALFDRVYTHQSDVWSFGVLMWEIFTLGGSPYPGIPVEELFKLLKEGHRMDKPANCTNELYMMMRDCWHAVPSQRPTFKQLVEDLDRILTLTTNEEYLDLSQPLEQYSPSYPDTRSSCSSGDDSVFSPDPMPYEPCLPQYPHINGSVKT"}, "[3]": {"molecular_target": "Fibroblast growth factor receptor 3 (Homo sapiens, UniProt P22607)", "sequence (P22607 whole entry)": "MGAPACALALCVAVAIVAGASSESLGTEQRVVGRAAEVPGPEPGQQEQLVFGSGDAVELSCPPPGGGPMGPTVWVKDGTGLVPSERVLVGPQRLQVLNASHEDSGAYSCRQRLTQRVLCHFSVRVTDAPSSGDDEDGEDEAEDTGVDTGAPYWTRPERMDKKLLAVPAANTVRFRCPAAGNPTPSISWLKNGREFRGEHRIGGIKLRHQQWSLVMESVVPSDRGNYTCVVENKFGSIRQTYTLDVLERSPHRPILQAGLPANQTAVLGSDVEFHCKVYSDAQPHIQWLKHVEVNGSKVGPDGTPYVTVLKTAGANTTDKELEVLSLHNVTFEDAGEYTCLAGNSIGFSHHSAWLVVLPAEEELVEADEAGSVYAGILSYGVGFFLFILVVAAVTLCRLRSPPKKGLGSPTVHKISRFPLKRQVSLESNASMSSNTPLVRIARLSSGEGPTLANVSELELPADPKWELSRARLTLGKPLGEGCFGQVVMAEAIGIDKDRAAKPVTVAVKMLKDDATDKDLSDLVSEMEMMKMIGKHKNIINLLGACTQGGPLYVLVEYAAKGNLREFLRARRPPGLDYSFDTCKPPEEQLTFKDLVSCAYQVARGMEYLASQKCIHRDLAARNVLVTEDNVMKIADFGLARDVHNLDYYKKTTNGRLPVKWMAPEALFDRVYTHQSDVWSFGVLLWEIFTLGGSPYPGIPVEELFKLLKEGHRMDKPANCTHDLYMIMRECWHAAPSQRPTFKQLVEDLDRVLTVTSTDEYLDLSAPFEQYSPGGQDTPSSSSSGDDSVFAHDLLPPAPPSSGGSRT", "test": "Inhibition of wild type FGFR3 (unknown origin) by caliper mobility shift assay"}, "[4]": {"molecular_target": "Fibroblast growth factor receptor 3 (Homo sapiens, UniProt P22607, V555L)", "sequence (P22607 23-806 V555L limits assumed)": "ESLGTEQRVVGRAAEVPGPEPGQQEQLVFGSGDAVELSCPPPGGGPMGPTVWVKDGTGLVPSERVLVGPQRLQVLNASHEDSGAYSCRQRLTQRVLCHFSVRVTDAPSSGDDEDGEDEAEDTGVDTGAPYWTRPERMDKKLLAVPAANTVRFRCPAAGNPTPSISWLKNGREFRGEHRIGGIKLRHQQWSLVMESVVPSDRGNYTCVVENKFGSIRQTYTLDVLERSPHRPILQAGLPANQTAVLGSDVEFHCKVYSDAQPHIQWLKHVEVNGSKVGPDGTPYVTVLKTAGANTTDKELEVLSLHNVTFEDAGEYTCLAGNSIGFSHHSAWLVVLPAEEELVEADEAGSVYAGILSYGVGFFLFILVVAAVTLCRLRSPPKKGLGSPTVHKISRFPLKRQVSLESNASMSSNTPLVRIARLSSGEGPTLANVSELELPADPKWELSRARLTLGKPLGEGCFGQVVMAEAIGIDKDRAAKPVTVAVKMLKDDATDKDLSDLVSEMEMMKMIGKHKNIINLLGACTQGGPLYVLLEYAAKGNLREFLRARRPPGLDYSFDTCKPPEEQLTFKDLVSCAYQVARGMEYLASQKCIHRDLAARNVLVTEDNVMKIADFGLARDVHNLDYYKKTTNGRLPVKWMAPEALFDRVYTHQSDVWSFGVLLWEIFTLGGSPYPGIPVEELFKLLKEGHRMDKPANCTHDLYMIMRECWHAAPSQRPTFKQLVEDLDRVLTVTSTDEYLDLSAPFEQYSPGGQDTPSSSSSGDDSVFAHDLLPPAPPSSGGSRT", "test": "Inhibition of FGFR3 V555L mutant (unknown origin) by caliper mobility shift assay"}, "[5]": {"molecular_target": "Fibroblast growth factor receptor 3 (Homo sapiens, UniProt P22607, V555M)", "sequence (P22607 23-806 V555M limits assumed)": "as the sequence (P22607 23-806 V555L limits assumed) above, with L533M counted along it"}, "[6]": {"molecular_target": "Fibroblast growth factor receptor 4 (Homo sapiens, UniProt P22455)", "test": "Inhibition of wild type FGFR4 (unknown origin) by caliper mobility shift assay"}, "[7]": {"molecular_target": "T1, Fibroblast growth factor receptor 2", "test": "Binding affinity to FGFR2 (unknown origin) at 0.1 uM"}, "[8]": {"molecular_target": "Platelet-derived growth factor receptor alpha (Homo sapiens) (UniProt P16234)", "sequence (P16234 whole entry)": "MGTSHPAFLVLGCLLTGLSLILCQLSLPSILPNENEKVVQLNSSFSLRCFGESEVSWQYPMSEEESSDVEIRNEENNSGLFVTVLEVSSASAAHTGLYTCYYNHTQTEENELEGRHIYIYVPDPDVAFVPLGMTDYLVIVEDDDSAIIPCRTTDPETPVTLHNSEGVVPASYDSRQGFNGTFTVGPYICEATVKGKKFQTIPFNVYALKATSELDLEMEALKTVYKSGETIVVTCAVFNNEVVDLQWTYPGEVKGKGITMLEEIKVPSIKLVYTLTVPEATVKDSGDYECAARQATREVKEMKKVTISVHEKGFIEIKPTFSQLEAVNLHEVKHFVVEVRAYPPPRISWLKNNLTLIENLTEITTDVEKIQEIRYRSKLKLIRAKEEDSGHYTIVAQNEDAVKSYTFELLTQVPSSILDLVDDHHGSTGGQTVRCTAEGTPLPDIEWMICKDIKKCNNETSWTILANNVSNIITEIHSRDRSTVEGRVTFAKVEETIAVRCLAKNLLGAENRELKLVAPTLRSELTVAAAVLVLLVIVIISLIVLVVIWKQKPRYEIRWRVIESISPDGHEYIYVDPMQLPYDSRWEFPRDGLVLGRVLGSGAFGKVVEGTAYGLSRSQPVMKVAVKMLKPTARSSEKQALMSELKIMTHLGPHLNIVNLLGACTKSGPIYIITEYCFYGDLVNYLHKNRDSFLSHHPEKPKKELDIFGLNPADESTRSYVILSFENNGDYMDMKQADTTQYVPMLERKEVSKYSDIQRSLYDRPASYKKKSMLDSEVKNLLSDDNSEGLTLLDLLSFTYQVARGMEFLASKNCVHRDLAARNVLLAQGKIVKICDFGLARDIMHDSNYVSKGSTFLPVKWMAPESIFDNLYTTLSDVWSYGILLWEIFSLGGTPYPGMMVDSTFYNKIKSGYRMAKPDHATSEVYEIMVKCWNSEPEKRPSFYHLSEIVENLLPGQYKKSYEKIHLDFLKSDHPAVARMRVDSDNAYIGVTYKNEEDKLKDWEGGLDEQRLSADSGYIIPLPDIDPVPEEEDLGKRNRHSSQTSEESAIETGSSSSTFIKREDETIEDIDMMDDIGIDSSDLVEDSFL", "test": "Inhibition of PDGFRalpha (unknown origin)"}, "[9]": {"molecular_target": "Epidermal growth factor receptor (Homo sapiens) (UniProt P00533)", "sequence (P00533 whole entry)": "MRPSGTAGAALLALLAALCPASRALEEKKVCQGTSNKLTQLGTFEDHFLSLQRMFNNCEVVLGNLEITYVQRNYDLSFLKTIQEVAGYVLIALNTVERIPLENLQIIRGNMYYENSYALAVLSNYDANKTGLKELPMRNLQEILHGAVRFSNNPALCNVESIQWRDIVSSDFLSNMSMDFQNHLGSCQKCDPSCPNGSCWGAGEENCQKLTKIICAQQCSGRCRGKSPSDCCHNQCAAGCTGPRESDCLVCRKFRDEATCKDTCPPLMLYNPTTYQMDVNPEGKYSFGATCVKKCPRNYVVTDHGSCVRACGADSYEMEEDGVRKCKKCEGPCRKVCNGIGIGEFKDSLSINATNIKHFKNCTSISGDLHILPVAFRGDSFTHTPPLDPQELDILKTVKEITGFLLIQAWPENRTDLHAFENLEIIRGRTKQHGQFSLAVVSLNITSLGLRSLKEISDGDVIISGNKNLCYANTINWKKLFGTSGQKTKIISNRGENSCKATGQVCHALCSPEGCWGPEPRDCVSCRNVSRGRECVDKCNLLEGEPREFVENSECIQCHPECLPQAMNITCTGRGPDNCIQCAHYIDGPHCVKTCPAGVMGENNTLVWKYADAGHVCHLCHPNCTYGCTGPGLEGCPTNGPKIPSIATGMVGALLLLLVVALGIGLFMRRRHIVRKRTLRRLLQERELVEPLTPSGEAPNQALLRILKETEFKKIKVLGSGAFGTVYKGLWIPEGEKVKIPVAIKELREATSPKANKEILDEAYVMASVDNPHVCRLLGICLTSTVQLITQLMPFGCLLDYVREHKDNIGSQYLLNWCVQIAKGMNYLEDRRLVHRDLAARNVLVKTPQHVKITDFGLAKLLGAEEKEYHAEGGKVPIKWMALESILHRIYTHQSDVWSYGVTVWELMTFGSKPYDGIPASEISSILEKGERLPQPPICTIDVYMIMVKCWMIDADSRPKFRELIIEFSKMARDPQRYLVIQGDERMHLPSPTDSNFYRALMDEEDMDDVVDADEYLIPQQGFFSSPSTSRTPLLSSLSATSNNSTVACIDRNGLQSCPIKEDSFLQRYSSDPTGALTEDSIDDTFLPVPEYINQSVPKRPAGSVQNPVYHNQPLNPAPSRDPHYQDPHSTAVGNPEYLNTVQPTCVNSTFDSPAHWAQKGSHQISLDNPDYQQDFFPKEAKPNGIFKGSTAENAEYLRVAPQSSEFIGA", "test": "Inhibition of EGFR (unknown origin)"}, "NCI-H1581 [10]": {"system": "NCI-H1581", "test": "Inhibition of colony formation in human NCI-H1581 cells at 10 nM incubated for 48 hrs by crystal violet staining based assay", "format": "functional, cell-based"}, "A549 [11]": {"system": "A549", "test": "Inhibition of colony formation in human A549 cells at 0.25 to 1.0 uM incubated for 48 hrs by crystal violet staining based assay", "format": "functional, cell-based", "settings": "dose 0.25-1 µM"}, "NCI-H1581 [12]": {"system": "NCI-H1581", "test": "Inhibition of DNA replication in human NCI-H1581 cells incubated for 1 hrs by EdU staining based analysis", "format": "functional, cell-based", "settings": "dose 100.0 µM"}, "NCI-H1581 [13]": {"system": "NCI-H1581", "test": "Inhibition of cell adhesion in human NCI-H1581 cells by crystal violet staining based analysis", "format": "functional", "settings": "dose 10-40 nM"}, "A549 [14]": {"system": "A549", "test": "Inhibition of AKT (unknown origin) phosphorylation in human A549 cells at 250 to 1000 nM by Western blotting analysis", "format": "cell-based", "settings": "dose 250-1000 nM"}, "NCI-H1581 [15]": {"system": "NCI-H1581", "test": "Inhibition of AKT (unknown origin) phosphorylation in human NCI-H1581 cells at 40 nM by Western blotting analysis", "format": "cell-based"}, "NCI-H1581 [16]": {"system": "NCI-H1581", "test": "Inhibition of cell migration in human NCI-H1581 cells at 10 to 40 nM incubated for 48 hrs by crystal violet staining based transwell assay", "format": "functional", "settings": "dose 10-40 nM"}, "[17]": {"test": "Cmax in male Sprague-Dawley rat at 2 mg/kg, iv by UHPLC-MS/MS analysis", "format": "ADME, organism-based", "settings": "in vivo"}, "[18]": {"test": "Tmax in male Sprague-Dawley rat at 10 mg/kg, po by UHPLC-MS/MS analysis", "format": "ADME, organism-based", "settings": "in vivo"}, "[19]": {"test": "Half life in male Sprague-Dawley rat at 2 mg/kg, iv by UHPLC-MS/MS analysis", "format": "ADME, organism-based", "settings": "in vivo"}, "[20]": {"test": "AUC(0 to infinity) in male Sprague-Dawley rat at 2 mg/kg, iv by UHPLC-MS/MS analysis", "format": "ADME, organism-based", "settings": "in vivo"}, "[21]": {"test": "Toxicity in ICR mouse assessed as change in heart weight at 80 mg/kg, po measured after 7 days", "format": "organism-based", "settings": "in vivo, 168 h, time 7 day"}, "[22]": {"test": "Toxicity in ICR mouse assessed as change in spleen weight at 80 mg/kg, po measured after 7 days", "format": "organism-based", "settings": "in vivo, 168 h, time 7 day"}, "[23]": {"test": "Toxicity in ICR mouse assessed as change in kidney weight at 80 mg/kg, po measured after 7 days", "format": "organism-based", "settings": "in vivo, 168 h, time 7 day"}, "[24]": {"test": "Hepatotoxicity in ICR mouse assessed as change in AST level at 80 mg/kg, po", "format": "toxicity, organism-based", "settings": "in vivo"}, "[25]": {"test": "Hepatotoxicity in ICR mouse assessed as change in ALT level at 80 mg/kg, po", "format": "toxicity, organism-based", "settings": "in vivo"}, "[26]": {"test": "Nephrotoxicity in ICR mouse assessed as change in Cr level at 80 mg/kg, po", "format": "toxicity, organism-based", "settings": "in vivo"}, "[27]": {"test": "Toxicity in ICR mouse assessed as histopathological changes in kidney at 80 mg/kg, po by H and E staining based analysis", "format": "organism-based", "settings": "in vivo"}, "[28]": {"molecular_target": "T1, Fibroblast growth factor receptor 2", "test": "Covalent irreversible binding affinity to FGFR2 (unknown origin) by MALDI-TOF MS analysis"}, "[29]": {"test": "Antitumor activity against rat L6 cells harboring FGFR V561M mutant xenografted in BALB/c nude mouse assessed as tumor growth inhibition at 30 mg/kg relative to control", "format": "functional", "settings": "read-out: TGI"}, "[30]": {"test": "Toxicity in ICR mouse assessed as drug tolerance at 80 mg/kg, po measured after 7 days", "format": "organism-based", "settings": "in vivo, 168 h, time 7 day"}, "[31]": {"test": "Toxicity in BALB/c nude mouse xenografted with rat L6 cells harboring FGFR V561M mutant assessed as change in heart weight at 30 to 60 mg/kg and measured daily for 14 days", "format": "organism-based", "settings": "in vivo, 336 h, dose 30-60 mg/kg, time 14 day"}, "[32]": {"test": "Toxicity in BALB/c nude mouse xenografted with rat L6 cells harboring FGFR V561M mutant assessed as change in spleen weight at 30 to 60 mg/kg and measured daily for 14 days", "format": "organism-based", "settings": "in vivo, 336 h, dose 30-60 mg/kg, time 14 day"}, "[33]": {"test": "Toxicity in BALB/c nude mouse xenografted with rat L6 cells harboring FGFR V561M mutant assessed as change in kidney weight at 30 to 60 mg/kg and measured daily for 14 days", "format": "organism-based", "settings": "in vivo, 336 h, dose 30-60 mg/kg, time 14 day"}, "Mus musculus [34]": {"system": "Mus musculus", "test": "In vivo inhibition of FGFR1 signaling pathway in BALB/c nude mouse xenografted with rat L6 cells harboring FGFR1 V561M mutant assessed as suppression of FGFR1 phosphorylation in tumor at 60 mg/kg by Western blotting analysis", "format": "functional, organism-based"}, "NCI-H1581 [35]": {"system": "NCI-H1581", "test": "Antitumor activity against human NCI-H1581 cells xenografted in BALB/c nude mouse assessed as tumor growth inhibition at 60 mg/kg relative to control", "format": "functional", "settings": "read-out: TGI"}, "Mus musculus [36]": {"system": "Mus musculus", "test": "In vivo inhibition of AKT phosphorylation in BALB/c nude mouse xenografted with human NCI-H1581 cells assessed as reduction in AKT phosphorylation level in tumor by Western blotting analysis", "format": "functional, organism-based"}, "[37]": {"test": "Toxicity in BALB/c nude mouse xenografted with human NCI-H1581 cells assessed as change in body weight"}, "[38]": {"test": "Toxicity in BALB/c nude mouse xenografted with human NCI-H1581 cells assessed as change in liver weight and measured after 14 days", "settings": "336 h, time 14 day"}, "[39]": {"test": "Toxicity in BALB/c nude mouse xenografted with human NCI-H1581 cells assessed as change in lung weight and measured after 14 days", "format": "tissue-based", "settings": "336 h, time 14 day"}, "[40]": {"test": "Toxicity in BALB/c nude mouse xenografted with human NCI-H1581 cells assessed as change in kidney weight and measured after 14 days", "format": "tissue-based", "settings": "336 h, time 14 day"}, "[41]": {"test": "Toxicity in BALB/c nude mouse xenografted with human NCI-H1581 cells assessed as change in ALT level at 60 mg/kg", "format": "organism-based", "settings": "in vivo"}, "[42]": {"test": "Toxicity in BALB/c nude mouse xenografted with human NCI-H1581 cells assessed as change in AST level at 60 mg/kg", "format": "organism-based", "settings": "in vivo"}, "NCI-H1581 [43]": {"system": "NCI-H1581", "test": "Antitumor activity against human NCI-H1581 cells xenografted in BALB/c nude mouse assessed as inhibition of tumor cell proliferation by Ki-67 staining based analysis", "format": "functional"}},
  "note": "Active and inactive are the calls of the source. The calls are words filed in the database; no cut-off is given here.",
  "data": [
    {"smiles": "C=CC(=O)Nc1ccc(Nc2nc(Nc3ccc(N4C[C@@H](C)N[C@@H](C)C4)c(OC)c3)ncc2Cl)cc1Cl", "values": [
      {"measurement": "IC50", "setting": "[1]", "result": 15.6, "unit": "nM"},
      {"measurement": "IC50", "setting": "[2]", "result": 1.5, "unit": "nM"},
      {"measurement": "IC50", "setting": "[3]", "result": 19.4, "unit": "nM"},
      {"measurement": "IC50", "setting": "[4]", "result": 2.2, "unit": "nM"},
      {"measurement": "IC50", "setting": "[5]", "result": 4.3, "unit": "nM"},
      {"measurement": "IC50", "setting": "[6]", "result": 486, "unit": "nM"},
      {"measurement": "Activity", "setting": "[7]", "result": "Not active; Reduced Affinities Observed"},
      {"measurement": "inhibition", "setting": "[8]", "result": "Not active; Moderate To Weak Inhibitory Activity Observed"},
      {"measurement": "inhibition", "setting": "[9]", "result": "Not active; Moderate To Weak Inhibitory Activity Observed"},
      {"measurement": "inhibition", "setting": "NCI-H1581 [10]", "result": "Active; Stronger Inhibition Observed"},
      {"measurement": "inhibition", "setting": "A549 [11]", "result": "Active"},
      {"measurement": "inhibition", "setting": "NCI-H1581 [12]", "result": "Dose-dependent-effect"},
      {"measurement": "inhibition", "setting": "NCI-H1581 [13]", "result": "Dose-dependent-effect"},
      {"measurement": "inhibition", "setting": "A549 [14]", "result": "Dose-dependent-effect"},
      {"measurement": "inhibition", "setting": "NCI-H1581 [15]", "result": "Active; Greater Inhibition Observed Compared To Infigratinib"},
      {"measurement": "inhibition", "setting": "NCI-H1581 [16]", "result": "Active"},
      {"measurement": "Cmax", "setting": "[17]", "result": 816, "unit": "ng/mL"},
      {"measurement": "Tmax", "setting": "[18]", "result": 30, "unit": "min"},
      {"measurement": "half-life", "setting": "[19]", "result": 213, "unit": "min"},
      {"measurement": "AUC(0-inf)", "setting": "[20]", "result": 5400, "unit": "ng·h/mL"},
      {"measurement": "Activity", "setting": "[21]", "result": "Non-toxic"},
      {"measurement": "Activity", "setting": "[22]", "result": "Non-toxic"},
      {"measurement": "Activity", "setting": "[23]", "result": "Non-toxic"},
      {"measurement": "Activity", "setting": "[24]", "result": "Non-toxic"},
      {"measurement": "Activity", "setting": "[25]", "result": "Non-toxic"},
      {"measurement": "Activity", "setting": "[26]", "result": "Non-toxic"},
      {"measurement": "Activity", "setting": "[27]", "result": "Non-toxic"},
      {"measurement": "Activity", "setting": "[28]", "result": "Active"},
      {"measurement": "inhibition in vivo at 30 mg/kg", "setting": "[29]", "result": 48, "unit": "%"},
      {"measurement": "Activity", "setting": "[30]", "result": "Non-toxic"},
      {"measurement": "Activity", "setting": "[31]", "result": "Non-toxic"},
      {"measurement": "Activity", "setting": "[32]", "result": "Non-toxic"},
      {"measurement": "Activity", "setting": "[33]", "result": "Non-toxic"},
      {"measurement": "inhibition", "setting": "Mus musculus [34]", "result": "Active"},
      {"measurement": "inhibition in vivo at 60 mg/kg", "setting": "NCI-H1581 [35]", "result": 61, "unit": "%"},
      {"measurement": "inhibition", "setting": "Mus musculus [36]", "result": "Active"},
      {"measurement": "Activity", "setting": "[37]", "result": "Non-toxic"},
      {"measurement": "Activity", "setting": "[38]", "result": "Non-toxic"},
      {"measurement": "Activity", "setting": "[39]", "result": "Non-toxic"},
      {"measurement": "Activity", "setting": "[40]", "result": "Non-toxic"},
      {"measurement": "Activity", "setting": "[41]", "result": "Non-toxic"},
      {"measurement": "Activity", "setting": "[42]", "result": "Non-toxic"},
      {"measurement": "Activity", "setting": "NCI-H1581 [43]", "result": "Active"}
    ]}
  ]
}
